Measured values: patent US20230365554A1, “SUBSTITUTED PYRROLO-PYRIDINONE DERIVATIVES AND THERAPEUTIC USES THEREOF” (The Broad Institute, Inc., priority 2020, published 2023)
Several values for one entry are separate records, joined by “and”; a condition that tells them apart may be missing. Equal entries are not always repeated.

Molecular target: wild-type Epidermal Growth Factor Receptor (EGFR) (Homo sapiens (Human), UniProt P00533)
Assay: WT-EGFR kinase assay (TR-FRET, 2 mM ATP)
Assay type: biochemical
Conditions: median or individual measurements, Table 3, read-out: EGFR Wildtyp-2mM ATP IC50 [mol/l] (median)
Source text: Inhibitory activity of compounds of the present invention against wild-type Epidermal Growth Factor Receptor (EGFR) was quantified employing the TR-FRET based EGFR assay as described in the following paragraphs.
Recombinant fusion protein of N-terminal Glutathion-S-Transferase (GST) and a fragment of human EGFR (amino acids R669 to A1210), expressed in Sf9 insect cells and purified via affinity chromatography using Glutathion Sepharose as described above, was used as kinase. As substrate for the kinase reaction the biotinylated peptide biotin-Ahx-AEEEEYFELVAKKK (C-terminus in amide form) was used which can be purchased e.g. form the company Biosynthan GmbH (Berlin-Buch, Germany).
For the assay 50 nl of a 100 fold concentrated solution of the test compound in DMSO was pipetted into either a black low volume 384 well microtiter plate or a black 1536 well microtiter plate (both Greiner Bio-One, Frickenhausen, Germany), 2 μL of a solution of EGFR in aqueous assay buffer [50 mM Hepes pH 7.0, 10 mM MgCl2, 1 mM dithiothreitol, 0.5 mM EGTA, 0.3 mM activated sodium ortho-vanadate, 0.005% (w/v) bovine serum albumin, 0.005% (v/v) Tween-20] were added and the mixture was incubated for 15 min at 22° C. to allow pre-binding of the test compounds to the enzyme before the start of the kinase reaction. Then the kinase reaction was started by the addition of 3 μL of a solution of adenosine-tri-phosphate (ATP, 3.33 mM=>final conc. in the 5 μL assay volume is 2 mM) and substrate (1.67 μM=>final conc. in the 5 μL assay volume is 1 μM) in assay buffer and the resulting mixture was incubated for a reaction time of 30 min at 22° C. The concentration of EGFR was adjusted depending of the activity of the enzyme lot and was chosen appropriate to have the assay in the linear range, typical concentration was 7.6 pg/μL. The reaction was stopped by the addition of 3 μL of a solution of HTRF detection reagents (83.3 nM streptavidine-XL665 [Cisbio Bioassays, Codolet, France] and 1.67 nM PT66-Tb-Cryptate, a terbium-cryptate labelled anti-phospho-tyrosine antibody from Cisbio Bioassays [instead of the PT66-Tb-cryptate PT66-Eu-Chelate from Perkin Elmer can also be used]) in an aqueous EDTA-solution (133.3 mM EDTA, 0.2% (w/v) bovine serum albumin in 50 mM HEPES pH 7.5).
The resulting mixture was incubated 1 h at 22° C. to allow the binding of the biotinylated phosphorylated peptide to the streptavidine-XL665 and the PT66-Tb-Cryptate. Subsequently the amount of phosphorylated substrate was evaluated by measurement of the resonance energy transfer from the PT66-Tb-Cryptate to the streptavidine-XL665. Therefore, the fluorescence emissions at 620 nm and 665 nm after excitation at 337 nm were measured in a HTRF reader, e.g. a Pherastar (BMG Labtechnologies, Offenburg, Germany) or a Viewlux (Perkin-Elmer). The ratio of the emissions at 665 nm and at […] was taken as the measure for the amount of phosphorylated substrate. The data were normalised (enzyme reaction without inhibitor=0% inhibition, all other assay components but no enzyme=100% inhibition).

Sequence of wild-type Epidermal Growth Factor Receptor (EGFR) (P00533 669-1210): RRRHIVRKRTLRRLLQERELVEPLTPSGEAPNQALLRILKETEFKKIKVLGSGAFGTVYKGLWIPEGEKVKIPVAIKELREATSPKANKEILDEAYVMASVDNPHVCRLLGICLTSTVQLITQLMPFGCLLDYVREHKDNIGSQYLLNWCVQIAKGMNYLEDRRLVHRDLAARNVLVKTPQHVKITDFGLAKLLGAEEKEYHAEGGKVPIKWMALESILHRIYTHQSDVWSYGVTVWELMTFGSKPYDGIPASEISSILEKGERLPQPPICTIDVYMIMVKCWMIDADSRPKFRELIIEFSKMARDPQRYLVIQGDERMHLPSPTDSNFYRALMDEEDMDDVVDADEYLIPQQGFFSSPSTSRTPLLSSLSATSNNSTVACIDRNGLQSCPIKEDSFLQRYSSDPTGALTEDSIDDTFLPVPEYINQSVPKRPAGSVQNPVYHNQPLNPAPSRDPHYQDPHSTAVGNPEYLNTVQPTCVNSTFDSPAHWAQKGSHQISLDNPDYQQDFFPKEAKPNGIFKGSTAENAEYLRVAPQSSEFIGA

| SMILES | IC50 |
| --- | --- |
| CN1CC(CC2CC2)c2[nH]c(-c3ccnc(NC(=O)Cc4ccc(F)cc4)c3)c(Nc3ccccc3)c2C1=O (single isomer, unassigned) [Example 19, N-{4-[3-anilino-7-(cyclopropylmethyl)-5-methyl-4-oxo-4,5,6,7-tetrahydro-1H-pyrrolo[3,2-c]pyridin-2-yl]pyridin-2-yl}-2-(4-fluorophenyl)acetamide] | 1.8 µM |
| CN1CC(CC2CC2)c2[nH]c(-c3ccnc(NC(=O)Cc4ccc(F)cc4)c3)c(Nc3ccccc3)c2C1=O (single isomer, unassigned) [Example 20, N-{4-[3-anilino-7-(cyclopropylmethyl)-5-methyl-4-oxo-4,5,6,7-tetrahydro-1H-pyrrolo[3,2-c]pyridin-2-yl]pyridin-2-yl}-2-(4-fluorophenyl)acetamide] | 8 µM |
| C[C@H](C(=O)Nc1cc(-c2[nH]c3ccn(C)c(=O)c3c2Nc2ccccc2)ccn1)c1ccc(F)cc1 (single isomer, unassigned) [Example 26] | > 20 µM |
| C[C@@H](C(=O)Nc1cc(-c2[nH]c3ccn(C)c(=O)c3c2Nc2ccccc2)ccn1)c1ccc(F)cc1 (single isomer, unassigned) [Example 27] | > 20 µM |
| Cn1ccc2[nH]c(-c3ccnc(NC(=O)C(CC(F)F)c4ccc(F)cc4)c3)c(Nc3ccccc3)c2c1=O (single isomer, unassigned) [Example 29, N-[4-(3-anilino-5-methyl-4-oxo-4,5-dihydro-1H-pyrrolo[3,2-c]pyridin-2-yl)pyridin-2-yl]-4,4-difluoro-2-(4-fluorophenyl)butanamide] | > 20 µM |
| Cn1ccc2[nH]c(-c3ccnc(NC(=O)C(CC(F)F)c4ccc(F)cc4)c3)c(Nc3ccccc3)c2c1=O (single isomer, unassigned) [Example 30, N-[4-(3-anilino-5-methyl-4-oxo-4,5-dihydro-1H-pyrrolo[3,2-c]pyridin-2-yl)pyridin-2-yl]-4,4-difluoro-2-(4-fluorophenyl)butanamide] | > 20 µM (2×) and 3.9 µM and 5.1 µM and 5.5 µM and 7.2 µM and 15 µM and 10 µM |
| Cn1cc(CC(F)(F)F)c2[nH]c(-c3ccnc(NC(=O)C(CC(F)F)c4ccc(F)cc4)c3)c(Nc3ccccc3)c2c1=O (single isomer, unassigned) [Example 36, N-{4-[3-anilino-5-methyl-4-oxo-7-(2,2,2-trifluoroethyl)-4,5-dihydro-1H-pyrrolo[3,2-c]pyridin-2-yl]pyridin-2-yl}-4,4-difluoro-2-(4-fluorophenyl)butanamide] | 1.1 µM |
| Cn1cc(CC(F)(F)F)c2[nH]c(-c3ccnc(NC(=O)C(CC(F)F)c4ccc(F)cc4)c3)c(Nc3ccccc3)c2c1=O (single isomer, unassigned) [Example 37, N-{4-[3-anilino-5-methyl-4-oxo-7-(2,2,2-trifluoroethyl)-4,5-dihydro-1H-pyrrolo[3,2-c]pyridin-2-yl]pyridin-2-yl}-4,4-difluoro-2-(4-fluorophenyl)butanamide] | 0.12 µM |
| Cc1cn(C)c(=O)c2c(Nc3ccccc3)c(-c3ccnc(NC(=O)C(C)c4ccc(F)cc4)c3)[nH]c12 (single isomer, unassigned) [Example 40, N-[4-(3-anilino-5,7-dimethyl-4-oxo-4,5-dihydro-1H-pyrrolo[3,2-c]pyridin-2-yl)pyridin-2-yl]-2-(4-fluorophenyl)propanamide] | 17 µM |
| Cc1cn(C)c(=O)c2c(Nc3ccccc3)c(-c3ccnc(NC(=O)C(C)c4ccc(F)cc4)c3)[nH]c12 (single isomer, unassigned) [Example 41, N-[4-(3-anilino-5,7-dimethyl-4-oxo-4,5-dihydro-1H-pyrrolo[3,2-c]pyridin-2-yl)pyridin-2-yl]-2-(4-fluorophenyl)propanamide] | 9.1 µM |
| CN1CC(CC(F)F)c2[nH]c(-c3ccnc(NC(=O)Cc4ccc(F)cc4)c3)c(Nc3ccccc3)c2C1=O (single isomer, unassigned) [Example 43, N-{4-[3-anilino-7-(2,2-difluoroethyl)-5-methyl-4-oxo-4,5,6,7-tetrahydro-1H-pyrrolo[3,2-c]pyridin-2-yl]pyridin-2-yl}-2-(4-fluorophenyl)acetamide] | 0.41 µM |
| CN1CC(CC(F)F)c2[nH]c(-c3ccnc(NC(=O)Cc4ccc(F)cc4)c3)c(Nc3ccccc3)c2C1=O (single isomer, unassigned) [Example 44, N-{4-[3-anilino-7-(2,2-difluoroethyl)-5-methyl-4-oxo-4,5,6,7-tetrahydro-1H-pyrrolo[3,2-c]pyridin-2-yl]pyridin-2-yl}-2-(4-fluorophenyl)acetamide] | 0.49 µM |
| CN1CC(CC(F)(F)F)c2[nH]c(-c3ccnc(NC(=O)Cc4ccc(F)cc4)c3)c(Nc3cscn3)c2C1=O (single isomer, unassigned) [Example 47, 2-(4-fluorophenyl)-N-{4-[(7R or S)-5-methyl-4-oxo-3-(1,3-thiazol-4-ylamino)-7-(2,2,2-trifluoroethyl)-4,5,6,7-tetrahydro-1H-pyrrolo[3,2-c]pyridin-2-yl]pyridin-2-yl}acetamide] | > 20 µM |
| CN1CC(CC(F)(F)F)c2[nH]c(-c3ccnc(NC(=O)Cc4ccc(F)cc4)c3)c(Nc3cscn3)c2C1=O (single isomer, unassigned) [Example 48, 2-(4-fluorophenyl)-N-{4-[(7R or S)-5-methyl-4-oxo-3-(1,3-thiazol-4-ylamino)-7-(2,2,2-trifluoroethyl)-4,5,6,7-tetrahydro-1H-pyrrolo[3,2-c]pyridin-2-yl]pyridin-2-yl}acetamide] | > 20 µM |
| CN1CC(CC2CC2)c2[nH]c(-c3ccnc(NC(=O)Cc4ccc(F)cc4)c3)c(Nc3cscn3)c2C1=O (single isomer, unassigned) [Example 50, N-{4-[(7R or S)-7-(cyclopropylmethyl)-5-methyl-4-oxo-3-(1,3-thiazol-4-ylamino)-4,5,6,7-tetrahydro-1H-pyrrolo[3,2-c]pyridin-2-yl]pyridin-2-yl}-2-(4-fluorophenyl)acetamide] | > 20 µM |
| CN1CC(CC2CC2)c2[nH]c(-c3ccnc(NC(=O)Cc4ccc(F)cc4)c3)c(Nc3cscn3)c2C1=O (single isomer, unassigned) [Example 51, N-{4-[(7R or S)-7-(cyclopropylmethyl)-5-methyl-4-oxo-3-(1,3-thiazol-4-ylamino)-4,5,6,7-tetrahydro-1H-pyrrolo[3,2-c]pyridin-2-yl]pyridin-2-yl}-2-(4-fluorophenyl)acetamide] | 17.2 µM and > 20 µM |
| CN1CC(CC(F)(F)F)c2[nH]c(-c3ccnc(NC(=O)C(CC(F)F)c4ccc(F)cc4)c3)c(Nc3cscn3)c2C1=O (single isomer, unassigned) [Example 53, (2R or S)-4,4-difluoro-2-(4-fluorophenyl)-N-{4-[(7R or S)-5-methyl-4-oxo-3-[(1,3-thiazol-4-yl)amino]-7-(2,2,2-trifluoroethyl)-4,5,6,7-tetrahydro-1H-pyrrolo[3,2-c]pyridin-2-yl]pyridin-2-yl}butanamide] | > 20 µM |
| CN1CC(CC(F)(F)F)c2[nH]c(-c3ccnc(NC(=O)C(CC(F)F)c4ccc(F)cc4)c3)c(Nc3cscn3)c2C1=O (single isomer, unassigned) [Example 54, (2R or S)-4,4-difluoro-2-(4-fluorophenyl)-N-{4-[(7R or S)-5-methyl-4-oxo-3-[(1,3-thiazol-4-yl)amino]-7-(2,2,2-trifluoroethyl)-4,5,6,7-tetrahydro-1H-pyrrolo[3,2-c]pyridin-2-yl]pyridin-2-yl}butanamide] | > 20 µM |
| CN1CC(CC(F)(F)F)c2[nH]c(-c3ccnc(NC(=O)C(CC(F)F)c4ccc(F)cc4)c3)c(Nc3cscn3)c2C1=O (single isomer, unassigned) [Example 55, (2R or S)-4,4-difluoro-2-(4-fluorophenyl)-N-{4-[(7R or S)-5-methyl-4-oxo-3-[(1,3-thiazol-4-yl)amino]-7-(2,2,2-trifluoroethyl)-4,5,6,7-tetrahydro-1H-pyrrolo[3,2-c]pyridin-2-yl]pyridin-2-yl}butanamide] | 10.8 µM and 9.47 µM |
